Measurements from PubChem BioAssay (NCI).
Where “and” joins values, the source holds several entries; their conditions need not be identical. Identical values can stand only once.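 48-hour exposure; five concentrations; linearly interpolated endpoints. Here, GI50 denotes the concentration required for 50% inhibition of growth. TGI: concentration producing complete growth inhibition.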

Legend:
Test in all cases: DTP human tumour cell line panel, 48 h; in the data active = GI50 below about 0.43 µM; inactive = the rest
KM12 colon = system: KM12 colon
NCI-H23 lung = system: NCI-H23 lung
SK-MEL-5 melanoma = system: SK-MEL-5 melanoma
SNB-19 CNS = system: SNB-19 CNS
SW-620 colon = system: SW-620 colon
OVCAR-8 ovarian = system: OVCAR-8 ovarian
MALME-3M melanoma = system: MALME-3M melanoma
RXF 393 renal = system: RXF 393 renal
SK-OV-3 ovarian = system: SK-OV-3 ovarian
HOP-92 NSCLC = system: HOP-92 NSCLC

CCN(CC)CC1CCCCCCCCCCC1=O (stereo not given)
> 100 µM: TGI (KM12 colon) | TGI (NCI-H23 lung) | TGI (SK-MEL-5 melanoma) | TGI (SNB-19 CNS) | TGI (SW-620 colon) | TGI (OVCAR-8 ovarian) | TGI (MALME-3M melanoma)

Cc1nc2c(-c3cnc(N)nc3)nc(N3CCOCC3)nc2n1C(C)C
> 10 µM and 21.8 µM: TGI (KM12 colon)
0.611 µM and 0.315 µM: TGI (RXF 393 renal)
> 5.51 µM and 4.37 µM: TGI (OVCAR-8 ovarian)
> 100 µM: TGI (SNB-19 CNS) | TGI (SW-620 colon)
0.57 µM and 0.226 µM: TGI (SK-OV-3 ovarian)
0.9 µM and 0.652 µM: TGI (SK-MEL-5 melanoma)
0.46 µM and 0.225 µM: TGI (MALME-3M melanoma)

[N-]=[N+]=NC12CC3C4CC5CC3C(C1)C(C5)C4C2
> 100 µM: TGI (HOP-92 NSCLC) | TGI (KM12 colon) | TGI (NCI-H23 lung) | TGI (SK-MEL-5 melanoma) | TGI (SNB-19 CNS) | TGI (SW-620 colon) | TGI (OVCAR-8 ovarian) | TGI (MALME-3M melanoma) | TGI (SK-OV-3 ovarian)

CN(C)c1ccc(C(C=C2c3ccccc3Sc3ccccc32)=C(C#N)C#N)cc1
> 100 µM: TGI (KM12 colon) | TGI (NCI-H23 lung) | TGI (SK-MEL-5 melanoma) | TGI (SNB-19 CNS) | TGI (SW-620 colon) | TGI (RXF 393 renal) | TGI (OVCAR-8 ovarian) | TGI (MALME-3M melanoma) | TGI (SK-OV-3 ovarian)

S=C1NC2(CCCCCC2)NN1c1ccccc1
> 100 µM: TGI (HOP-92 NSCLC) | TGI (KM12 colon) | TGI (NCI-H23 lung) | TGI (SK-MEL-5 melanoma) | TGI (SNB-19 CNS) | TGI (SW-620 colon) | TGI (OVCAR-8 ovarian) | TGI (MALME-3M melanoma) | TGI (SK-OV-3 ovarian)

CC(C)(C)CC(C)(C)c1cc2c(O)c(c1)Cc1cc(C(C)(C)CC(C)(C)C)cc(c1O)Cc1cc(C(C)(C)CC(C)(C)C)cc(c1O)Cc1cc(C(C)(C)CC(C)(C)C)cc(c1O)C2
> 100 µM: TGI (HOP-92 NSCLC) | TGI (KM12 colon) | TGI (NCI-H23 lung) | TGI (SK-MEL-5 melanoma) | TGI (SNB-19 CNS) | TGI (SW-620 colon) | TGI (RXF 393 renal) | TGI (OVCAR-8 ovarian) | TGI (MALME-3M melanoma)

COc1ccc(C2C(Cl)C(=O)N2n2cnc3ccccc3c2=O)cc1 (stereo not given)
> 100 µM: TGI (KM12 colon) | TGI (NCI-H23 lung) | TGI (SK-MEL-5 melanoma) | TGI (SNB-19 CNS) | TGI (SW-620 colon) | TGI (RXF 393 renal) | TGI (OVCAR-8 ovarian) | TGI (MALME-3M melanoma) | TGI (SK-OV-3 ovarian)

O=C(OC(CNc1cc(=O)n(Cc2ccccc2)c(=O)n1Cc1ccccc1)CN1CCCC1)c1ccccc1 (stereo not given)
> 100 µM: TGI (KM12 colon) | TGI (NCI-H23 lung) | TGI (SK-MEL-5 melanoma) | TGI (SNB-19 CNS) | TGI (SW-620 colon) | TGI (RXF 393 renal) | TGI (OVCAR-8 ovarian) | TGI (MALME-3M melanoma) | TGI (SK-OV-3 ovarian)
inactive: GI50 (KM12 colon) > 100 µM | GI50 (NCI-H23 lung) > 100 µM | GI50 (SK-MEL-5 melanoma) > 100 µM | GI50 (SNB-19 CNS) > 100 µM | GI50 (SW-620 colon) > 100 µM | GI50 (RXF 393 renal) 76.1 µM | GI50 (OVCAR-8 ovarian) > 100 µM | GI50 (MALME-3M melanoma) > 100 µM | GI50 (SK-OV-3 ovarian) > 100 µM

Cc1ccc(NC(=O)C(=O)C(C(=O)c2ccc3ccccc3c2)C2OC(=O)c3ccccc32)cc1C (stereo not given)
63.7 µM: TGI (SW-620 colon)
66.2 µM: TGI (OVCAR-8 ovarian)
> 100 µM: TGI (SK-OV-3 ovarian)
18 µM: TGI (NCI-H23 lung)
21.3 µM: TGI (SNB-19 CNS)
57.8 µM: TGI (MALME-3M melanoma)
47.1 µM: TGI (KM12 colon)
40.6 µM: TGI (HOP-92 NSCLC)
30 µM: TGI (SK-MEL-5 melanoma)

Cn1c2c(c3ccccc31)C1CCCCCCC1C1C(=O)OC(=O)C21 (stereo not given)
> 100 µM: TGI (KM12 colon) | TGI (NCI-H23 lung) | TGI (SK-MEL-5 melanoma) | TGI (SNB-19 CNS) | TGI (SW-620 colon) | TGI (OVCAR-8 ovarian) | TGI (SK-OV-3 ovarian)
69 µM: TGI (MALME-3M melanoma)
49 µM: TGI (RXF 393 renal)

CO/N=C/c1cc(OC)c(OC)c(OC)c1
> 100 µM: TGI (HOP-92 NSCLC) | TGI (KM12 colon) | TGI (NCI-H23 lung) | TGI (SK-MEL-5 melanoma) | TGI (SNB-19 CNS) | TGI (SW-620 colon) | TGI (OVCAR-8 ovarian) | TGI (MALME-3M melanoma) | TGI (SK-OV-3 ovarian)

COc1ccc2c3c([nH]c2c1[N+](=O)[O-])C(C)=NCC3
> 100 µM: TGI (KM12 colon) | TGI (SNB-19 CNS) | TGI (SW-620 colon) | TGI (RXF 393 renal) | TGI (OVCAR-8 ovarian)

N#Cc1nc(Nc2cccc3ccccc23)sc1N
52.3 µM: TGI (HOP-92 NSCLC)
> 100 µM: TGI (KM12 colon) | TGI (SNB-19 CNS) | TGI (SW-620 colon) | TGI (OVCAR-8 ovarian) | TGI (MALME-3M melanoma) | TGI (SK-OV-3 ovarian)
47.2 µM: TGI (NCI-H23 lung)

CC(C)c1ccc2c(c1)CC[C@@H]1[C@@](C)(C(=O)O)CCC[C@]21C
0.727 µM: TGI (RXF 393 renal)
18.6 µM: TGI (SNB-19 CNS)
inactive: GI50 (HOP-92 NSCLC) 20.7 µM | GI50 (KM12 colon) 5.44 µM | GI50 (SK-MEL-5 melanoma) 5.02 µM | GI50 (SNB-19 CNS) 6.21 µM | GI50 (SW-620 colon) 10.2 µM | GI50 (OVCAR-8 ovarian) 2.16 µM | GI50 (SK-OV-3 ovarian) 4.49 µM
16.5 µM: TGI (SK-MEL-5 melanoma)
76.8 µM: TGI (HOP-92 NSCLC)
19.5 µM: TGI (KM12 colon)
7.87 µM: TGI (OVCAR-8 ovarian)
21.4 µM: TGI (SK-OV-3 ovarian)
22.8 µM: TGI (SW-620 colon)
active: GI50 (RXF 393 renal) 0.0244 µM

CN(C)N=Nc1ccc(NC=O)cc1
> 100 µM: TGI (HOP-92 NSCLC) | TGI (KM12 colon) | TGI (SK-MEL-5 melanoma) | TGI (SNB-19 CNS) | TGI (SW-620 colon) | TGI (RXF 393 renal) | TGI (OVCAR-8 ovarian) | TGI (SK-OV-3 ovarian)

C=C(CNCc1ccccc1)c1ccc(C(=O)Nc2ccccc2N)cc1
> 100 µM: TGI (SW-620 colon) | TGI (OVCAR-8 ovarian)
21.3 µM: TGI (KM12 colon)
24.1 µM: TGI (RXF 393 renal)
inactive: GI50 (HOP-92 NSCLC) 15.1 µM | GI50 (KM12 colon) 4.05 µM | GI50 (NCI-H23 lung) 2.37 µM | GI50 (SK-MEL-5 melanoma) 4.66 µM | GI50 (SNB-19 CNS) 16.4 µM | GI50 (SW-620 colon) 8.5 µM | GI50 (RXF 393 renal) 1.87 µM | GI50 (OVCAR-8 ovarian) 2.17 µM | GI50 (SK-OV-3 ovarian) 4.22 µM
55.9 µM: TGI (HOP-92 NSCLC)
78.5 µM: TGI (SNB-19 CNS)
22.8 µM: TGI (SK-OV-3 ovarian)
17.4 µM: TGI (SK-MEL-5 melanoma)
8.23 µM: TGI (NCI-H23 lung)
